Values after ≈ are worked out from the molar mass of the structure shown. Values joined by “and” are separate entries in the source; they are usually repeats but may differ in a detail not shown here. Equal values may be shown once. “Also recorded” adds a separate entry of the source. Read-outs that look alike come from different tables or passages of the source.
How the values were obtained:
Format in all cases: cell-based
Pseudomonas aeruginosa [1] = assay: Disc diffusion, zone of inhibition; set-up: key to Zone of inhibition (class): R: Resistant; settings: drug-resistant P. aeruginosa; for Zone of inhibition: diameter: 37° C., 24h
Method: (§1) The qualitative screenings of antimicrobial activity were measured by plating in petri dishes to determine the formation of zones of inhibition for bacterial pathogens tested against compounds 6a, 6b and the standard antibiotic ampicillin.
(§2) The quantitative and qualitative screening of anti-bacterial activity of compounds 6a and 6b was conducted, the results being described above. Quantitative screening was determined by minimal inhibitory concentration (MIC) and minimal bactericidal concentration (MBC), while qualitative screening was accomplished by disc diffusion method. E. coli (ATCC—25922) and S. epidermis (ATCC 12228) were used as standard strains, and drug-resistant pathogens P. aeruginosa, S. typhi, and S. aureus were used to screen the antimicrobial activity. Gram negative bacteria were maintained on nutrient broth (NB)/agar plates (NA) and gram positive bacteria were maintained on trypticase soy broth (TSB)/agar plates (TSA). The compounds 6a and 6b concentration range was prepared by two-fold dilution in a sterile broth from the stock, using a microtiter 96 well plate method. Twelve dilutions of each compound, ranging from 7500 to 3.65 μg/ml, were tested, and Ampicillin was used as a positive control agent (with a range of 500 to 0.24 μg/ml).
(§3) The mid log bacterial inoculum was speeded on NA/TSA and the loaded disc was placed on agar plates and incubated at 37° C. for 24h. After this period, the inhibitions produced by the compounds around the disc were measured using antibiotic zone scale (Hi-Media, Mumbai, India) and zone of inhibitions were measured in mm.

Salmonella typhi [2] = assay: Disc diffusion, zone of inhibition; set-up: key to Zone of inhibition (class): R: Resistant; settings: drug-resistant S. typhi; for Zone of inhibition: diameter: 37° C., 24h
Method: as §1, §2, §3

Staphylococcus aureus [3] = assay: Disc diffusion, zone of inhibition; set-up: key to Zone of inhibition (class): R: Resistant; settings: drug-resistant S. aureus; for Zone of inhibition: diameter: 37° C., 24h
Method: as §1, §2, §3

Staphylococcus epidermis [4] = assay: MIC/MBC by two-fold dilution, microtiter 96 well plate method; settings: S. epidermis (ATCC 12228), standard/control strain
Method: (§4) Compounds 6a and 6b were tested for their antimicrobial activity against both gram positive and gram negative drug-resistant bacteria. Minimum inhibitory concentration (MIC) and minimum bactericidal concentration (MBC) values for compounds 6a and 6b, as compared with a reference antibacterial drug (ampicillin), for Escherichia coli (EC), Pseudomonas aeruginosa (PS), Salmonella typhi (ST), Staphylococcus aureus (SA), and Staphylococcus epidermis (SE) are reported in Tables 2A and 2B.
as §2

Escherichia coli [5] = assay: as above; settings: E. coli (ATCC—25922), standard/control strain
Method: as §4, §2

Staphylococcus epidermis [6] = assay: Disc diffusion, zone of inhibition; settings: S. epidermis control strain; for Zone of inhibition: diameter: 37° C., 24h
Method: as §1, §2, §3

Escherichia coli [7] = assay: Disc diffusion, zone of inhibition; settings: E. coli control strain; for Zone of inhibition: diameter: 37° C., 24h
Method: as §1, §2, §3

P. aeruginosa = assay: AO/EB live/dead bacterial double staining; settings: P. aeruginosa treated at MIC, 4 hours; fluorescent microscope
Method: (§5) The acridine orange (AO) and ethidium bromide (EB) double staining method was used to analyse the Live/dead bacterial cells for untreated and compound 6a-treated S. aureus and P. aeruginosa cells. Both sets of cells, treated and untreated for each of the two bacteria, were stained with AO/EB for 15 minutes. The unbound dyes were removed by rinsing the cells twice with phosphate buffer saline (PBS). 10 μl samples of each were then placed on a glass slide with coverslip, and observed using a ZEISS inverted florescent microscope. The untreated gram positive (FIG. 6A) and gram negative (FIG. 6C) bacterial cells appeared green due to the presence of healthy, viable cells with intact/undamaged cell membranes and uniform chromatin. In contrast, the compound 6a-treated cells (treated gram positive in FIG. 6B, and treated gram negative in 6D) appeared red due to the resulting dents, blisters and damaged cell walls on bacterial cells, providing entry for the EB dye. Thus, the AO/EB double staining confirms the bactericidal action of compound 6a through cell wall and cell membrane damage.
(§6) Fluorescent dye stock solution was prepared by dissolving equal quantities of acridine orange (AO) and ethidium bromide (EB)—10 mg each—in 10 ml of PBS. The working solution was prepared by diluting 200 μl of stock solution into 10 ml of PBS. […]

S. aureus = assay: AO/EB live/dead bacterial double staining; settings: S. aureus treated at MIC, 4 hours; fluorescent microscope
Method: as §5, §6

Pseudomonas aeruginosa [8] = assay: MIC/MBC by two-fold dilution, microtiter 96 well plate method; settings: drug-resistant P. aeruginosa
Method: as §4, §2

Salmonella typhi [9] = assay: as above; settings: drug-resistant S. typhi
Method: as §4, §2

Staphylococcus aureus [10] = assay: as above; settings: drug-resistant S. aureus
Method: as §4, §2

SMILES: CC1(C)S[C@@H]2[C@H](NC(=O)[C@H](N)c3ccccc3)C(=O)N2[C@H]1C(=O)O [Ampicillin, reference compound]
- Zone of inhibition (class) (Pseudomonas aeruginosa [1]; 25 μg/disc): R
- Zone of inhibition (class) (Salmonella typhi [2]; 25 μg/disc): R
- Zone of inhibition (class) (Staphylococcus aureus [3]; 25 μg/disc): R
- zone of inhibition at 25 µg/disc (Staphylococcus aureus [3]; Staphylococcus aureus, 25 μg/disc, read-out: Zone of inhibition: diameter): < 13 mm
- MBC (Staphylococcus epidermis [4]; Staphylococcus, ATCC12228, read-out: MBC): 7.81 µg/mL (≈ 22.4 µM)
- MIC (Staphylococcus epidermis [4]; Staphylococcus, ATCC12228, read-out: MIC): 3.9 µg/mL (≈ 11.2 µM)
- MBC (Escherichia coli [5]; Escherichia coli, read-out: MBC): 7.81 µg/mL (≈ 22.4 µM)
- MIC (Escherichia coli [5]; Escherichia coli, read-out: MIC): 3.9 µg/mL (≈ 11.2 µM)
- zone of inhibition at 25 µg/disc (Staphylococcus epidermis [6]; Staphylococcus, 25 μg/disc, read-out: Zone of inhibition: diameter): 23.3 mm
- zone of inhibition at 25 µg/disc (Escherichia coli [7]; Escherichia coli, 25 μg/disc, read-out: Zone of inhibition: diameter): 22.3 ± 1.77 mm

SMILES: O=C1C(=Cc2ccc(F)cc2)CNCC12C(c1ccc(F)cc1)C1CSCN1C21C(=O)Nc2ccccc21 (stereo not drawn) [Compound 6a, spiro[5.3″ ]-oxindole-spiro-[6.2′]-6′-(4-fluorophenylmethylidene)tetrahydro-4′(1H)-pyridinone-7-(4-fluorophenyl)tetrahydro-1H-pyrrolo[1,2-c][1,3] thiazole]
- Zone of inhibition: diameter (Pseudomonas aeruginosa [1]; 60 μg/disc): 19.3±0.81 mm
- Zone of inhibition: diameter (Salmonella typhi [2]; 60 μg/disc): 22.3±1.47 mm
- Zone of inhibition: diameter (Staphylococcus aureus [3]; 60 μg/disc): 26.3±0.81 mm
- Live/dead AO/EB double staining appearance of treated cells (P. aeruginosa): dented, blistered and damaged cell walls; also recorded: appeared red
- Live/dead AO/EB double staining appearance of treated cells (S. aureus): dented, blistered and damaged cell walls; also recorded: appeared red
- MBC (Pseudomonas aeruginosa [8]): 58.55 µg/mL (≈ 111 µM)
- MIC (Pseudomonas aeruginosa [8]): 29.25 µg/mL (≈ 55.2 µM)
- MBC (Salmonella typhi [9]): 58.55 µg/mL (≈ 111 µM)
- MIC (Salmonella typhi [9]): 29.25 µg/mL (≈ 55.2 µM)
- MBC (Staphylococcus epidermis [4]): 29.25 µg/mL (≈ 55.2 µM)
- MIC (Staphylococcus epidermis [4]): 14.62 µg/mL (≈ 27.6 µM)
- MBC (Staphylococcus aureus [10]): 58.55 µg/mL (≈ 111 µM)
- MIC (Staphylococcus aureus [10]): 29.25 µg/mL (≈ 55.2 µM)
- MBC (Escherichia coli [5]): 29.25 µg/mL (≈ 55.2 µM)
- MIC (Escherichia coli [5]): 14.62 µg/mL (≈ 27.6 µM)
- Zone of inhibition: diameter (Staphylococcus epidermis [6]; 60 μg/disc): 31.3±1.08 mm and 31.3 mm
- Zone of inhibition: diameter (Escherichia coli [7]; 60 μg/disc): 27.3±1.08 mm

SMILES: O=C1C(=Cc2ccccc2F)CNCC12C(c1ccccc1F)C1CSCN1C21C(=O)Nc2ccccc21 (stereo not drawn) [Compound 6b, spiro[5.3″ ]-oxindole-spiro-[6.2′]-6′-(2-fluorophenylmethylidene)tetrahydro-4′(1H)-pyridinone-7-(2-fluorophenyl)tetrahydro-1H-pyrrolo[1,2-c][1,3] thiazole]
- Zone of inhibition: diameter (Pseudomonas aeruginosa [1]; 120 μg/disc): 16.3 ± 1.63 mm
- Zone of inhibition: diameter (Salmonella typhi [2]; 120 μg/disc): 16.3 ± 1.08 mm
- Zone of inhibition: diameter (Staphylococcus aureus [3]; 120 μg/disc): 17.6 ± 1.47 mm
- MBC (Pseudomonas aeruginosa [8]): 117.15 µg/mL (≈ 221 µM)
- MIC (Pseudomonas aeruginosa [8]): 58.55 µg/mL (≈ 111 µM)
- MBC (Salmonella typhi [9]): 117.15 µg/mL (≈ 221 µM)
- MIC (Salmonella typhi [9]): 58.55 µg/mL (≈ 111 µM)
- MBC (Staphylococcus epidermis [4]): 58.55 µg/mL (≈ 111 µM)
- MIC (Staphylococcus epidermis [4]): 29.25 µg/mL (≈ 55.2 µM)
- MBC (Staphylococcus aureus [10]): 117.15 µg/mL (≈ 221 µM)
- MIC (Staphylococcus aureus [10]): 68.55 µg/mL (≈ 129 µM)
- MBC (Escherichia coli [5]): 58.55 µg/mL (≈ 111 µM)
- MIC (Escherichia coli [5]): 29.25 µg/mL (≈ 55.2 µM)
- Zone of inhibition: diameter (Staphylococcus epidermis [6]; 120 μg/disc): 19.3 mm
- Zone of inhibition: diameter (Escherichia coli [7]; 120 μg/disc): 18.6 ± 1.47 mm

From US10590147B1, “Spirooxindole-pyrrolothiazole heterocyclic hybrids” (KING SAUD UNIVERSITY, priority 2019, dated 2020)
